Data as given in patent US20100099676A1 (SHIONOGI & CO., LTD., priority 2006, published 2010).

Columns and labels:
Test in all cases: Enzyme inhibiting activity of MMPs, fluorogenic peptide substrate
Format in all cases: biochemical
MMP-2 = biological target: T1, MMP-2 (Homo sapiens, UniProt P08253); conditions: substrate MOCAc-Pro-Leu-Gly-Leu-A2Pr(DNP)-Ala-Arg-NH2, fluorescent intensity
T1 construct: purchased Calbiochem (EMD/MERCK Biosciences)
T1 sequence (P08253 110-660): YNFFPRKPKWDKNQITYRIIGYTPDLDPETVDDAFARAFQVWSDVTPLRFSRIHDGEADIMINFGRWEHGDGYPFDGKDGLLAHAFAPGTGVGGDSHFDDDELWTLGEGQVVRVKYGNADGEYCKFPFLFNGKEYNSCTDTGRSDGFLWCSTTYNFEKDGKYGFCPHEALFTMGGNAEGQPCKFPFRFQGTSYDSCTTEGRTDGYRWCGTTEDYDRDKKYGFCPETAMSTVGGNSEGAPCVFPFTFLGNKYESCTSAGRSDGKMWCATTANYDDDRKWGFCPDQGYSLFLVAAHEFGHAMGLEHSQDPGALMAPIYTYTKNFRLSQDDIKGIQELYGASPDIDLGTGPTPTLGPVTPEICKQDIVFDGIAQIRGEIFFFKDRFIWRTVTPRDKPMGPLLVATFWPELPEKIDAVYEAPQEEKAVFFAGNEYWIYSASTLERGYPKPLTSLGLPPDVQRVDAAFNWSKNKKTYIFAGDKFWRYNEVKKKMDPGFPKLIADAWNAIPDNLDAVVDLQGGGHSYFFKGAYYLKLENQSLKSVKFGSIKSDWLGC
Experimental: (§1) Various human MMPs (MMP-2, MMP-9 and MMP-13) were purchased from Calbiochem (EMD/MERCK Biosciences).
(§2) The enzyme activity of MMPs was measured according to the method described in C. Graham Knight, Frances Willenbrock and Gillian Murphy: A novel coumarin-labelled peptide for sensitive continuous assays of the matrix metalloproteinases: FEBS LETT., 296, (1992), 263-266. As a substrate, MOCAc-Pro-Leu-Gly-Leu-A2Pr(DNP)- Ala-Arg-NH2 (Peptide Institute, Inc. Osaka, Japan) was used, and the following four assays are performed per compound (inhibitor) for measuring the inhibiting activity.
(§3) (A) Substrate (synthetic substrate), enzyme (MMPs), inhibitor
(§4) (B) Substrate (synthetic substrate), inhibitor
(§5) (C) Substrate (synthetic substrate), enzyme (MMPs)
(§6) (D) Substrate (synthetic substrate)
(§7) In each assay, the fluorescent intensity was measured, and inhibition (%) was calculated by the following equation.
(§8) Inhibition (%)=[I−(A−B)/(C−D)]×100
(§9) IC50 indicates a concentration at which inhibition (%) is 50%.

MMP-9 = biological target: T2, MMP-9 (Homo sapiens, UniProt P14780); conditions: substrate MOCAc-Pro-Leu-Gly-Leu-A2Pr(DNP)-Ala-Arg-NH2, fluorescent intensity
T2 construct: purchased Calbiochem (EMD/MERCK Biosciences)
Experimental: as §1, §2, §3, §4, §5, §6, §7, §8, §9

MMP-13 = biological target: T3, MMP-13 (Homo sapiens, UniProt P45452); conditions: APMA-activated proenzyme; substrate MOCAc-Pro-Leu-Gly-Leu-A2Pr(DNP)-Ala-Arg-NH2, fluorescent intensity; read-out: IC50 MMP-13
T3 construct: purchased Calbiochem (EMD/MERCK Biosciences)
Summary of the method: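 Pro-MMP-13 was activated with 1 mM APMA at 37° C for 2 h in 50 mM Tris-HCl pH 7.6, 0.3 M NaCl, 10 mM CaCl2, 0.005% Brij35. Activity was read by fluorescence using MOCAc-Pro-Leu-Gly-Leu-A2Pr(DNP)-Ala-Arg-NH2 substrate, with enzyme and inhibitor blank corrections. IC50 is the concentration giving 50% inhibition.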

T2 sequence (P14780 94-707): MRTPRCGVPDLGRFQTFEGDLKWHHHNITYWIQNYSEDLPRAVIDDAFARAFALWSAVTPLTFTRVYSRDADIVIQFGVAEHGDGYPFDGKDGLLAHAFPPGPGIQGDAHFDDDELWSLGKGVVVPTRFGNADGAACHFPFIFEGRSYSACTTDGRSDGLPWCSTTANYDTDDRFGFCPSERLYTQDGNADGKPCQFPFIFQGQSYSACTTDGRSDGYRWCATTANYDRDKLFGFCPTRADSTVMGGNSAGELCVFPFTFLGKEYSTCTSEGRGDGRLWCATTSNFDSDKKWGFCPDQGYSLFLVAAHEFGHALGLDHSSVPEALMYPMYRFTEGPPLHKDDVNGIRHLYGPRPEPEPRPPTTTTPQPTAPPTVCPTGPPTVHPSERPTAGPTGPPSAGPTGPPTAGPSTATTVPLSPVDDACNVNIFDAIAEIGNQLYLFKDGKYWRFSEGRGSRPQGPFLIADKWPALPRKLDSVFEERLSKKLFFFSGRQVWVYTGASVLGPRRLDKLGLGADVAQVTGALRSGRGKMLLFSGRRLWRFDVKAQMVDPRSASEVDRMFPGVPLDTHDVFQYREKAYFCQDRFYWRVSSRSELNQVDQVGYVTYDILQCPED

IC50 (MMP-2)	IC50 (MMP-9)	IC50 (MMP-13)	Structure (SMILES)
> 10000 nM	> 10000 nM	23 nM	CC(C)[C@@H](NS(=O)(=O)N1CCN(c2ccc(C#Cc3ccnc(C(=O)NCc4ccc(SC(F)(F)F)cc4)c3)cc2)CC1)C(=O)O [III-222, (R)-3-methyl-2-(4-{4-[2-(4-trifluoromethylsulfanylbenzylcarbamoyl)-pyridin-4-ylethynyl]-phenyl}-piperazine-1-sulfonylamino)-butanoic acid]
1000 to 10000 nM	> 10000 nM	8 nM	CC(C)[C@@H](NS(=O)(=O)N1CCN(c2ccc(C#Cc3ccnc(C(=O)NCc4cc(F)cc(F)c4)c3)cc2)CC1)C(=O)O [III-192, (R)-2-(4-{4-[2-(3,5-difluorobenzylcarbamoyl)-pyridin-4-ylethynyl]-phenyl}-piperazine-1-sulfonylamino)-3-methylbutanoic acid]
1000 to 10000 nM	> 10000 nM	4 nM	CC(C)[C@@H](NS(=O)(=O)N1CCN(c2ccc(C#Cc3ccnc(C(=O)NCc4ccc5c(c4)OCO5)c3)cc2)CC1)C(=O)O [III-199, (R)-2-[4-(4-{2-[(benzo[1,3]dioxol-5-ylmethyl)-carbamoyl]-pyridin-4-ylethynyl}-phenyl)-piperazine-1-sulfonylamino]-3-methylbutanoic acid]
1000 to 10000 nM	> 10000 nM	4 nM	CC(C)[C@@H](NS(=O)(=O)N1CCN(c2ccc(C#Cc3ccc4ccn(Cc5ccc(S(C)(=O)=O)cc5)c(=O)c4c3)cc2)CC1)C(=O)O [III-170, (R)-2-(4-{4-[2-(4-methanesulfonylbenzyl)-1-oxo-1,2-dihydroisoquinolin-7-ylethynyl)-phenyl]-piperazine-1-sulfonylamino}-3-methylbutanoic acid]
> 10000 nM	> 10000 nM	19 nM	CC(C)[C@@H](NS(=O)(=O)N1CCN(c2ccc(C#Cc3ccnc(C(=O)NCc4cc(Cl)cc(Cl)c4)c3)cc2)CC1)C(=O)O [III-157, (R)-2-(4-{4-[2-(3,5-dichlorobenzylcarbamoyl)-pyridin-4-ylethynyl]-phenyl}-piperazine-1-sulfonylamino)-3-methylbutanoic acid]
1000 to 10000 nM	> 10000 nM	4 nM	CC(C)[C@@H](NS(=O)(=O)N1CCN(c2ccc(C#Cc3ccnc(C(=O)NCc4ccc5c(c4)OCCO5)c3)cc2)CC1)C(=O)O [III-205, (R)-2-[4-(4-{2-[(2,3-dihydrbenzo[1,4]dioxin-6-ylmethyl)-carbamoyl]-pyridin-4-ylethynyl}-phenyl)-piperazine-1-sulfonylamino]-3-methylbutanoic acid]
> 10000 nM	> 10000 nM	21 nM	CC(C)[C@@H](NS(=O)(=O)N1CCN(c2ccc(C#Cc3ccnc(C(=O)NCc4ccc(C(C)(C)C)cc4)c3)cc2)CC1)C(=O)O [III-154, (R)-2-(4-{4-[2-(4-tert-butylbenzylcarbamoyl)-pyridin-4-ylethynyl]-phenyl}-piperazine-1-sulfonylamino)-3-methylbutanoic acid]
1000 to 10000 nM	> 10000 nM	7 nM	CC(C)[C@@H](NS(=O)(=O)N1CCN(c2ccc(C#Cc3ccnc(C(=O)NCc4cccs4)c3)cc2)CC1)C(=O)O [III-187, (R)-3-methyl-2-[4-(4-{2-[(thiophen-2-ylmethyl)-carbamoyl]-pyridin-4-ylethynyl}-phenyl)-piperazine-1-sulfonylamino]-butanoic acid]
1000 to 10000 nM	> 10000 nM	10 nM	CC(C)[C@@H](NS(=O)(=O)N1CCN(c2ccc(C#Cc3ccnc(C(=O)NCc4ccc(Cl)c(Cl)c4)c3)cc2)CC1)C(=O)O [III-156, (R)-2-(4-{4-[2-(3,4-dichlorobenzylcarbamoyl)-pyridin-4-ylethynyl]-phenyl}-piperazine-1-sulfonylamino)-3-methylbutanoic acid]

More lines, now with the values behind:

Structure (SMILES)	IC50 (MMP-2)	IC50 (MMP-9)	IC50 (MMP-13)
C[C@H](NS(=O)(=O)N1CCN(c2ccc(C#Cc3ccnc(C(=O)NCc4ccc(Cl)cc4)c3)cc2)CC1)C(=O)O [III-59, (S)-2-(4-{4-[2-(4-chrolobenzylcarbamoyl)-pyridin-4-ylethynyl]-phenyl}-piperazine-1-sulfonylamino)-proponic acid]	> 10000 nM	> 10000 nM	6 nM
C[C@@H](NS(=O)(=O)N1CCN(c2ccc(C#Cc3cccc(C(=O)NCc4ccccc4)c3)cc2)CC1)C(=O)O [Compound I-1, (1)-2-{4-[4-(3-benzylcarbamoylphenylethynyl)-phenyl]-piperazine-1-sulfonylamino}-proponic acid]	100 to 1000 nM	> 10000 nM	2.1 nM
CC(C)[C@@H](NS(=O)(=O)N1CCN(c2ccc(C#Cc3ccnc(C(=O)NCc4ccc(N5CCOCC5)cc4)c3)cc2)CC1)C(=O)O	1000 to 10000 nM	> 10000 nM	4 nM
CC(C)[C@@H](NS(=O)(=O)N1CCN(c2ccc(C#Cc3ccc(OCCOC(C)(C)C)c(C(=O)NCC#N)c3)cc2)CC1)C(=O)O [III-138, (R)-2-(4-{4-[4-(2-tert-butoxyethoxy)-3-(cyanomethylcarbamoyl)-phenylethynyl]-phenyl}-piperazine-1-sulfonylamino)-3-methylbutanoic acid]	1000 to 10000 nM	> 10000 nM	18 nM
CC(C)[C@H](NS(=O)(=O)N1CCN(c2ccc(C#Cc3ccnc(C(=O)NCc4ccc(Cl)cc4)c3)cc2)CC1)C(=O)O [III-69, (S)-2-(4-{4-[2-(4-chrolobenzylcarbamoyl)-pyridin-4-ylethynyl]-phenyl}-piperazine-1-sulfonylamino)-3-methylbutanoic acid]	> 10000 nM	> 10000 nM	7 nM
CC(=O)c1nccc2ccc(C#Cc3ccc(N4CCN(S(=O)(=O)N[C@@H](C(=O)O)C(C)C)CC4)cc3)cc12 [Compound V-1, (R)-2-{4-[4-(1-acetylisoquinolin-7-ylethynyl)-phenyl]-piperazine-1-sulfonylamino}-3-methylbutanoic acid]	1000 to 10000 nM	> 10000 nM	46 nM
CC(C)CCOc1ccc(C#Cc2ccc(N3CCN(S(=O)(=O)N[C@@H](C(=O)O)C(C)C)CC3)cc2)cc1C(=O)NCC#N [III-99, (R)-2-(4-{4-[3-(cyanomethylcarbamoyl)-4-(3-methylbutoxy)phenylethynyl]-phenyl}-piperazine-1-sulfonylamino)-3-methylbutanoic acid]	1000 to 10000 nM	> 10000 nM	25 nM
C[C@@H](NS(=O)(=O)N1CCN(c2ccc(C#Cc3ccc4c(c3)c(/C=C/C#N)cn4C)cc2)CC1)C(=O)O [Compound I-114, (R)-2-(4-{4-[3-((E)-2-cyanovinyl)-1-methyl-1H-indol-5-ylethynyl]-phenyl}-piperazine-1-sulfonylamino)-proponic acid]	1000 to 10000 nM	> 10000 nM	11 nM
C[C@@H](NS(=O)(=O)N1CCN(c2ccc(/C=C/c3cccc(C(=O)NCc4ccccc4)c3)cc2)CC1)C(=O)O [Compound I-2, (R)-2-(4-{4-[(E)-2-(3-benzylcarbamoylphenyl)-vinyl]-phenyl}-piperazine-1-sulfonylamino)-proponic acid]	100 to 1000 nM	> 10000 nM	3.8 nM
CCOc1ccc(C#Cc2ccc(N3CCN(S(=O)(=O)N[C@H](C)C(=O)O)CC3)cc2)cc1-c1ncc(CC)o1 [Compound V-25, (R)-2-(4-{4-[4-ethoxy-3-(5-ethyloxazol-2-yl)-phenylethynyl]-phenyl}-piperazine-1-sulfonylamino)-proponic acid]	1000 to 10000 nM	> 10000 nM	9 nM
C[C@@H](NS(=O)(=O)N1CCN(c2ccc(C#Cc3nc(-c4cccc(OCc5ccc(S(C)(=O)=O)cc5)c4)cs3)cc2)CC1)C(=O)O [Compound V-20, (R)-2-[4-(4-{4-[3-(4-methanesulfonylbenzyloxy)-phenyl]-thiazol-2-ylethynyl}-phenyl)-piperazine-1-sulfonylamino]-proponic acid]	1000 to 10000 nM	> 10000 nM	1 nM
